# According to patent publication US11684614B2, “Formulations of hydroxypyridonate actinide/lanthanide decorporation agents” (priority 2017, dated 2023):
# “And” between values parts separate entries of the source, which are not always exact repeats. Equal entries are not always repeated.
# Assay: Repeated-treatment efficacy for removing an intravenous dose of 238Pu (excretion, tissue retention, clinical observations), female and male arms
# Format: in vivo, Swiss-Webster mice
# Conditions: for % Recovered Dose - Feces per Day: male mice, listed as 3,4,3-LI(1,2-HOPO)
# Description: The objective of this study was to characterize the efficacy of 3,4,3-L1(1,2-HOPO) at enhancing elimination from an internal plutonium burden in female and male Swiss-Webster mice administered a soluble citrate complex of ^238Pu and treated multiple times, starting at 24 hours after the exposure. Efficacy was evaluated by comparing the tissue contents, urinary and fecal excretions of ^238Pu in treated animals versus untreated animals.
# The medical countermeasure 3,4,3-L1(1,2-HOPO) was administered parenterally (ip) or orally (po) via consecutive injections or gavages (six daily or twelve twice daily) starting at 24 hours post contamination at the following four selected doses: 30 μmol/kg ip, 150 μmol/kg po, 300 μmol/kg po, and 600 μmol/kg po (equivalent to respective approximate human doses range of […], using the accepted conversion system of mouse doses into human equivalent doses—HED—based on body surface area). Oral doses also included the permeability enhancer selected during formulation development work.
# • Challenge isotope: ^238Pu • Challenge dose: 25 nCi (i.e., approximately 0.8 μCi/kg) • Route of contamination: Intravenous (iv) tail-vein • Route of treatment: Intraperitoneal Injection (ip) or Oral (po) • Frequency of treatment: Multiple (once- or twice-daily for 6 days) doses, starting 24 hr postcontamination • Treatment dose calculation: Dose calculations (mg/kg or μmol/kg) for the decorporation agent were based on the individual body weight measured after contamination. • Study Duration: 11 days, in-life
# c. […] Test article and control dose formulations were prepared within 1 day of dose administration, by weighing out the appropriate amount of test article, dispersing in vehicle. For ip solutions, the test article was used alone, while for oral suspensions, a mixture of test article and excipient (90:10, w:w) was used. The pH was adjusted to 7.0-7.4 for ip administration and 5.0-5.5 for oral administration with sterile NaOH. Dose formulations were prepared at room temperature and filter-sterilized. • Storage: 2-8° C.; refrigerated; protected from light. • Characterization: The concentration of each test article formulation was verified by high-performance liquid chromatography-mass spectrometry. • Test Article Handling: Test, reference, and control article formulations were handled with the use of eye protection, gloves, and a protective laboratory coat. • Correct Dose Assurance: The test article was weighed with calibrated balances. The administration of each dose formulation was properly documented, and the amount administered to each animal recorded.
# e. Experimental Procedures (In-Life Evaluations and Euthanasia) • Contamination: Single administration by intravenous (iv) tail-vein injection (0.2 mL injection volume) under isoflurane anesthesia. Three standard 0.2 mL injections were performed into polyethylene bottles and pre-loaded with aliquots of concentrated nitric acid on each injection day. Six female and six male mice were culled for necropsy 1 hr post-contamination and were used as standards. A11 standards were processed and counted together with the final samples to allow verification of the contamination dose. • Dose Administration: Single administration by intraperitoneal injection (ip) or oral gavage (po) under isoflurane anesthesia. • Mortality/Morbidity: Assessed at least once daily. • Clinical Observations: Recorded once daily (4 hr post-dose on day of treatment), or more often as clinical signs warranted. […]
smiles,measurement,setting,value
"O=C(NCCCN(CCCCN(CCCNC(=O)c1cccc(=O)n1O)C(=O)c1cccc(=O)n1O)C(=O)c1cccc(=O)n1O)c1cccc(=O)n1O [3,4,3-L1(1,2-HOPO)]",% Recovered Dose - Feces per Day,"group I, feces day 1, Day 11 necropsy",9.44% and 11.73% and 10.15% and 5.92% and 9.00% and 6.11% and 8.55% and 9.19%
same,% Recovered Dose - Feces per Day,"group I, feces day 3, Day 11 necropsy",7.33% and 7.00% and 5.92% and 6.28% and 9.54% and 7.12% and 7.60% and 4.73%
same,% Recovered Dose - Feces per Day,"group I, feces day 4, Day 11 necropsy",4.73% and 4.29% and 4.45% and 3.39% and 5.21% and 4.16% and 3.65% and 3.13%
same,% Recovered Dose - Feces per Day,"group I, feces day 5, Day 11 necropsy",2.15% and 1.67% and 2.13% and 2.90% and 1.73% and 2.06% and 1.56% and 2.26%
same,% Recovered Dose - Feces per Day,"group I, feces day 6, Day 11 necropsy",1.96% and 1.64% and 1.89% and 2.15% and 2.00% and 1.56% and 1.92% and 1.66%
same,% Recovered Dose - Feces per Day,"group I, feces day 7, Day 11 necropsy",1.48% and 2.52% and 0.83% and 1.51% and 0.94% and 1.29% and 1.15% and 1.02%
same,% Recovered Dose - Feces per Day,"group I, feces day 8, Day 11 necropsy",0.86% and 0.84% and 0.55% and 0.76% and 1.22% and 0.87%
same,% Recovered Dose - Feces per Day,"group I, feces day 9, Day 11 necropsy",0.53% and 0.71% and 0.43% and 0.64% and 0.57% and 0.47% and 0.49%
same,% Recovered Dose - Feces per Day,"group I, feces day 10, Day 11 necropsy",0.46% and 0.52% and 0.43% and 0.45% and 0.40% and 0.47% and 0.36%
same,% Recovered Dose - Feces per Day,"group I, feces day 11, Day 11 necropsy",0.47% and 0.38% and 0.37% and 0.43% and 0.48% and 0.44% and 0.50%
same,% Recovered Dose - Feces per Day,"group L, feces day 2, Day 11 necropsy",9.49% and 10.37% and 11.59% and 15.06% and 13.00% and 13.15% and 16.38% and 8.84%
same,% Recovered Dose - Feces per Day,"group L, feces day 3, Day 11 necropsy",2.02% and 3.23% and 3.48% and 4.47% and 2.87% and 3.37% and 4.43% and 2.71%
same,% Recovered Dose - Feces per Day,"group L, feces day 4, Day 11 necropsy",1.98% and 2.69% and 3.71% and 6.81% and 3.67% and 4.04% and 3.55% and 3.76%
same,% Recovered Dose - Feces per Day,"group L, feces day 5, Day 11 necropsy",1.04% and 1.47% and 2.57% and 2.42% and 1.75% and 1.82% and 2.26% and 1.72%
same,% Recovered Dose - Feces per Day,"group L, feces day 6, Day 11 necropsy",3.32% and 1.94% and 2.97% and 2.78% and 2.36% and 3.15% and 2.15% and 2.74%
same,% Recovered Dose - Feces per Day,"group L, feces day 7, Day 11 necropsy",1.56% and 1.72% and 1.53% and 1.45% and 2.10% and 1.44% and 1.80% and 1.29%
same,% Recovered Dose - Feces per Day,"group L, feces day 8, Day 11 necropsy",1.03% and 1.27% and 1.54% and 1.58% and 1.33% and 1.26% and 1.23% and 0.92%
same,% Recovered Dose - Feces per Day,"group L, feces day 9, Day 11 necropsy",0.88% and 0.94% and 0.96% and 0.57% and 1.17% and 1.08% and 0.78%
same,% Recovered Dose - Feces per Day,"group L, feces day 10, Day 11 necropsy",0.60% and 0.98% and 0.96% and 0.65% and 0.99% and 1.01% and 1.02% and 0.90%
same,% Recovered Dose - Feces per Day,"group L, feces day 11, Day 11 necropsy",0.63% and 0.89% and 0.79% and 0.66% and 0.87% and 0.84%
same,% Recovered Dose - Feces per Day,"group M, feces day 2, Day 11 necropsy",16.84% and 15.20% and 15.54% and 13.29% and 15.04% and 19.29% and 14.53% and 19.54%
same,% Recovered Dose - Feces per Day,"group M, feces day 3, Day 11 necropsy",4.32% and 6.13% and 4.17% and 2.65% and 4.16% and 6.33% and 4.24% and 3.82%
same,% Recovered Dose - Feces per Day,"group M, feces day 4, Day 11 necropsy",3.42% and 4.94% and 4.01% and 4.02% and 6.06% and 4.40% and 3.22% and 2.93%
same,% Recovered Dose - Feces per Day,"group M, feces day 5, Day 11 necropsy",1.00% and 2.50% and 1.52% and 1.62% and 1.76% and 1.90% and 1.20% and 1.08%
same,% Recovered Dose - Feces per Day,"group M, feces day 6, Day 11 necropsy",10.71% and 2.32% and 2.47% and 1.70% and 3.63% and 2.41% and 1.58% and 1.99%
same,% Recovered Dose - Feces per Day,"group M, feces day 7, Day 11 necropsy",5.02% and 2.31% and 1.09% and 1.15% and 1.51% and 1.35% and 0.86% and 1.01%
same,% Recovered Dose - Feces per Day,"group M, feces day 8, Day 11 necropsy",1.81% and 1.55% and 1.22% and 0.94% and 1.24% and 2.07% and 0.87% and 1.10%
same,% Recovered Dose - Feces per Day,"group M, feces day 9, Day 11 necropsy",1.01% and 1.12% and 0.73% and 0.57% and 0.96% and 0.64% and 0.76%
same,% Recovered Dose - Feces per Day,"group M, feces day 10, Day 11 necropsy",0.48% and 0.47% and 0.92% and 0.59% and 0.65% and 1.22% and 0.76% and 0.85%
same,% Recovered Dose - Feces per Day,"group M, feces day 11, Day 11 necropsy",0.57% and 0.46% and 0.82% and 0.41% and 0.70% and 1.12% and 0.68% and 1.01%
same,increase in total 238Pu excretion compared to the control groups,"male, 6 daily oral treatments, 600 μmol/kg, 11 days post-contamination",up to 156%
same,tissue content of 238Pu compared to saline control group,"male, all analyzed tissues, all dosing regimens",large reductions
same,full body content of 238Pu compared to saline control groups,"male, all treated groups",significant reductions
same,decrease in body burden compared to the control groups,"male, once-daily oral 600 μmol/kg, 11 days post-contamination",up to 48%
same,decorporation efficacy relative to parenteral DTPA,"male, oral once-daily 300 and 600 μmol/kg",equivalent to that of parenteral treatment with DTPA
same,238Pu elimination enhancement,"male, oral twice-daily 150 and 300 μmol/kg or once-daily 300 and 600 μmol/kg, 7 days post-contamination",significant
